For two cell lines, relative viability results are on record in the supplement of paper PMC10307832.

Common to all, as to experiment: relative viability (nuclei count vs DMSO), 5 days (fraction); higher = more cells survive
Compound in the assay “BMX-IN-1 + OSI-027”: C=CC(=O)Nc1cc(-n2c(=O)ccc3cnc4ccc(-c5ccc(NS(C)(=O)=O)cc5)cc4c32)ccc1C [BMX-IN-1] + COc1cccc2cc(-c3nc([C@H]4CC[C@H](C(=O)O)CC4)n4ncnc(N)c34)[nH]c12 [OSI-027] (partner 0.5 µM)
In short, it runs like this: (§1)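 Medians of duplicate plates are given as relative viability. That measure is the nuclei count in treated wells divided by the count in vehicle wells. Counts were taken on 4× images of lung cancer cell lines in 1536-well plates, 5 days after pin-tool dosing the day after seeding with one drug alone or a fixed anchor-drug dose plus five library-drug doses (not always all listed) in √10 steps.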

Compound in the assay “Ibrutinib + Palbociclib”: C=CC(=O)N1CCC[C@@H](n2nc(-c3ccc(Oc4ccccc4)cc3)c3c(N)ncnc32)C1 [Ibrutinib] + CC(=O)c1c(C)c2cnc(Nc3ccc(N4CCNCC4)cn3)nc2n(C2CCCC2)c1=O [Palbociclib] (partner 0.5 µM)
Put shortly:
as §1

Compound in the assay “PAC-1 + Olaparib”: C=CCc1cccc(/C=N/NC(=O)CN2CCN(Cc3ccccc3)CC2)c1O [PAC-1] + O=C(c1cc(Cc2n[nH]c(=O)c3ccccc23)ccc1F)N1CCN(C(=O)C2CC2)CC1 [Olaparib] (partner 8 µM)
Put shortly:
as §1

Compound in the assay “Ibrutinib + Dasatinib”: C=CC(=O)N1CCC[C@@H](n2nc(-c3ccc(Oc4ccccc4)cc3)c3c(N)ncnc32)C1 [Ibrutinib] + Cc1nc(Nc2ncc(C(=O)Nc3c(C)cccc3Cl)s2)cc(N2CCN(CCO)CC2)n1 [Dasatinib] (partner 0.075 µM)
In short, it runs like this:
as §1

On to SW 1573, for which the relative viability with BMX-IN-1 + OSI-027 (first compound 0.02 µM) worked out at 0.882; with BMX-IN-1 + OSI-027 (first compound 0.2 µM), 0.778; with BMX-IN-1 + OSI-027 (first compound 0.6325 µM), 0.736; in the assay with BMX-IN-1 + OSI-027 (first compound 2 µM), 0.0649; with Ibrutinib + Palbociclib (first compound 0.01581 µM) it was 0.345; in the assay with Ibrutinib + Palbociclib (first compound 0.05 µM), 0.419. Also, the relative viability in the assay with Ibrutinib + Palbociclib (first compound 0.1581 µM) stood at 0.393; with Ibrutinib + Palbociclib (first compound 0.5 µM), 0.477; in the assay with PAC-1 + Olaparib (first compound 0.02 µM) it was 0.446; with PAC-1 + Olaparib (first compound 0.06325 µM) it was 0.426; with PAC-1 + Olaparib (first compound 0.2 µM) it was 0.442; with PAC-1 + Olaparib (first compound 2 µM), 0.41. Further, the relative viability with Ibrutinib + Dasatinib (first compound 0.005 µM) stood at 0.647; with Ibrutinib + Dasatinib (first compound 0.01581 µM), 0.494; in the assay with Ibrutinib + Dasatinib (first compound 0.05 µM), 0.477; in the assay with Ibrutinib + Dasatinib (first compound 0.1581 µM), 0.588; with Ibrutinib + Dasatinib (first compound 0.5 µM), 0.514.
In the case of UMC-11, the relative viability stood at 0.571 with BMX-IN-1 + OSI-027 (first compound 0.02 µM); 0.578 with BMX-IN-1 + OSI-027 (first compound 0.2 µM); 0.491 with BMX-IN-1 + OSI-027 (first compound 0.6325 µM); 0.488 with BMX-IN-1 + OSI-027 (first compound 2 µM); 0.335 with Ibrutinib + Palbociclib (first compound 0.01581 µM); 0.359 with Ibrutinib + Palbociclib (first compound 0.05 µM). In addition, the relative viability was determined as 0.417 in the assay with Ibrutinib + Palbociclib (first compound 0.1581 µM); 0.355 in the assay with Ibrutinib + Palbociclib (first compound 0.5 µM); 0.411 with PAC-1 + Olaparib (first compound 0.02 µM); 0.366 in the assay with PAC-1 + Olaparib (first compound 0.06325 µM); 0.366 with PAC-1 + Olaparib (first compound 0.2 µM); 0.377 in the assay with PAC-1 + Olaparib (first compound 2 µM). Further, the relative viability with Ibrutinib + Dasatinib (first compound 0.005 µM) stood at 0.417; with Ibrutinib + Dasatinib (first compound 0.01581 µM), 0.411; with Ibrutinib + Dasatinib (first compound 0.05 µM) it was 0.485; with Ibrutinib + Dasatinib (first compound 0.1581 µM) it was 0.548; with Ibrutinib + Dasatinib (first compound 0.5 µM), 0.486.
